Patent publication US9707229B2, “Compositions and methods for treating an infection” (CMPD LICENSING, LLC, priority 2015, dated 2017)
Where two headings read alike, the source gives them in different places.

Legend:
Klebsiella oxytoca = assay: Expected efficacy of antibiotic agents; type: cell-based; conditions: Gram: neg
Pseudomonas fluorescens = assay: Expected efficacy of antibiotic agents; type: cell-based; conditions: Gram: neg
Shigella dysenteriae = assay: Expected efficacy of antibiotic agents; type: cell-based; conditions: Gram: neg
Shigella boydii = assay: Expected efficacy of antibiotic agents; type: cell-based; conditions: Gram: neg
[1] = test system: gram-positive staphylococci and streptococci; conditions: general description, no test given; cited from earlier work
Shigella sonnei = assay: Expected efficacy of antibiotic agents; type: cell-based; conditions: Gram: neg
Citrobacter freundii = assay: Expected efficacy of antibiotic agents; type: cell-based; conditions: Gram: neg
[2] = test system: Methicillin resistant staph aureus (MRSA); assay: Expected efficacy of antibiotic agents; type: cell-based; conditions: Gram: pos
Rickettsiae = type: cell-based
Clostridium perfringens = type: cell-based
[3] = test system: Corynebacterium urealyticum; assay: Expected efficacy of antibiotic agents; type: cell-based; conditions: Gram: pos
Haemophilus ducreyi = assay: Expected efficacy of antibiotic agents; type: cell-based; conditions: Gram: neg
Bordetella pertussis = assay: Expected efficacy of antibiotic agents; type: cell-based; conditions: Gram: neg
Francisella tularensis = type: cell-based
Proteus mirabilis = assay: Expected efficacy of antibiotic agents; type: cell-based; conditions: Gram: neg
Bartonella bacilliformis = assay: Expected efficacy of antibiotic agents; type: cell-based; conditions: Gram: neg
Providencia stuartii = assay: Expected efficacy of antibiotic agents; type: cell-based; conditions: Gram: neg
[4] = test system: Staphylococcus aureus (MSSA); assay: Expected efficacy of antibiotic agents; type: cell-based; conditions: Gram: pos
Acinetobacter lwoffii = assay: Expected efficacy of antibiotic agents; type: cell-based; conditions: Gram: neg
Legionella pneumophila = type: cell-based
Pseudomonas aeruginosa = assay: Expected efficacy of antibiotic agents; type: cell-based; conditions: Gram: neg
Streptococcus pyogenes = assay: Expected efficacy of antibiotic agents; type: cell-based; conditions: Gram: pos
Haemophilus influenzae = assay: Expected efficacy of antibiotic agents; type: cell-based; conditions: Gram: neg
Proteus vulgaris = assay: Expected efficacy of antibiotic agents; type: cell-based; conditions: Gram: neg
Acinetobacter baumannii = assay: Expected efficacy of antibiotic agents; type: cell-based; conditions: Gram: neg
Moraxella catarrhalis = assay: Expected efficacy of antibiotic agents; type: cell-based; conditions: Gram: neg
[5] = test system: Acinetobacter calcoaceticus; assay: Expected efficacy of antibiotic agents; type: cell-based; conditions: Gram: neg
Neisseria meningitidis = assay: Expected efficacy of antibiotic agents; type: cell-based; conditions: Gram: neg
Campylobacter jejuni = assay: Expected efficacy of antibiotic agents; type: cell-based; conditions: Gram: neg
Yersinia pestis = type: cell-based
Providencia rettgeri = assay: Expected efficacy of antibiotic agents; type: cell-based; conditions: Gram: neg
Enterobacter cloacae = assay: Expected efficacy of antibiotic agents; type: cell-based; conditions: Gram: neg
Brucella species = type: cell-based
Morganella morganii = assay: Expected efficacy of antibiotic agents; type: cell-based; conditions: Gram: neg
Enterobacter sakazakii = assay: Expected efficacy of antibiotic agents; type: cell-based; conditions: Gram: neg
Enterobacter aerogenes = assay: Expected efficacy of antibiotic agents; type: cell-based; conditions: Gram: neg
Serratia marcescens = assay: Expected efficacy of antibiotic agents; type: cell-based; conditions: Gram: neg
[6] = test system: Klebsiella (Calymmatobacterium) granulomatis; assay: Expected efficacy of antibiotic agents; type: cell-based; conditions: Gram: neg
Neisseria gonorrhoeae = assay: Expected efficacy of antibiotic agents; type: cell-based; conditions: Gram: neg
Salmonella typhi = assay: Expected efficacy of antibiotic agents; type: cell-based; conditions: Gram: neg
Shigella flexneri = assay: Expected efficacy of antibiotic agents; type: cell-based; conditions: Gram: neg
Citrobacter diversus = assay: Expected efficacy of antibiotic agents; type: cell-based; conditions: Gram: neg
Vibrio cholerae = assay: Expected efficacy of antibiotic agents; type: cell-based; conditions: Gram: neg
Escherichia coli = assay: Expected efficacy of antibiotic agents; type: cell-based; conditions: Gram: neg
Corynebacterium jeikeium = assay: Expected efficacy of antibiotic agents; type: cell-based; conditions: Gram: pos
Klebsiella pneumoniae = assay: Expected efficacy of antibiotic agents; type: cell-based; conditions: Gram: neg
Candida species = assay: Expected efficacy of antifungal agents; type: cell-based
Cryptococcus neoformans = assay: Expected efficacy of antifungal agents; type: cell-based
Aspergillus fumigatus = assay: Expected efficacy of antifungal agents; type: cell-based
Blastomyces dermatitidis = assay: Expected efficacy of antifungal agents; type: cell-based
Histoplasma capsulatum = type: cell-based; conditions: expected efficacy
Aspergillus flavus = assay: Expected efficacy of antifungal agents; type: cell-based
Coccidioides immitis = type: cell-based; conditions: expected efficacy
Chlamydia pneumoniae = assay: Expected efficacy of antibiotic agents; type: cell-based; conditions: Gram: n/a
Peptostreptococcus = assay: Expected efficacy of antibiotic agents; type: cell-based; conditions: Gram: pos
Bacteroides fragilis = assay: Expected efficacy of antibiotic agents; type: cell-based; conditions: Gram: anaer
Streptococcus agalactiae = assay: Expected efficacy of antibiotic agents; type: cell-based; conditions: Gram: pos
Enterococcus faecalis = assay: Expected efficacy of antibiotic agents; type: cell-based; conditions: Gram: pos
Clostridium difficile = assay: Expected efficacy of antibiotic agents; type: cell-based; conditions: Gram: anaer
Streptococcus pneumoniae = assay: Expected efficacy of antibiotic agents; type: cell-based; conditions: Gram: pos
[7] = test system: Staphylococcus epidermidis; assay: Expected efficacy of antibiotic agents; type: cell-based; conditions: Gram: pos
[8] = test system: Haemophilus parainfluenzae; assay: Expected efficacy of antibiotic agents; type: cell-based; conditions: Gram: neg
Enterococcus faecium = assay: Expected efficacy of antibiotic agents; type: cell-based; conditions: Gram: pos
[9] = test system: Viridans group streptococci; assay: Expected efficacy of antibiotic agents; type: cell-based; conditions: Gram: pos
Mycoplasma pneumoniae = assay: Expected efficacy of antibiotic agents; type: cell-based; conditions: Gram: n/a
Chlamydia trachomatis = assay: Expected efficacy of antibiotic agents; type: cell-based; conditions: Gram: n/a
Chlamydia psittaci = type: cell-based
Diphtheroids = assay: Expected efficacy of antibiotic agents; type: cell-based; conditions: Gram: pos

## C/C(=C\C(=O)OCCCCCCCCC(=O)O)C[C@@H]1OC[C@H](C[C@@H]2O[C@H]2[C@@H](C)[C@H](C)O)[C@@H](O)[C@H]1O [Bactroban, Mupirocin]
Klebsiella oxytoca
  efficacy against Klebsiella oxytoca: no
Pseudomonas fluorescens
  efficacy against Pseudomonas fluorescens: no
Shigella dysenteriae
  efficacy against Shigella dysenteriae: no
Shigella boydii
  efficacy against Shigella boydii: no
[1]
  activity against gram-positive staphylococci and streptococci: excellent activity
Shigella sonnei
  efficacy against Shigella sonnei: no
Citrobacter freundii
  efficacy against Citrobacter freundii: no
[2]
  efficacy against Methicillin resistant staph aureus (MRSA): yes
Rickettsiae; expected efficacy, Gram: neg
  efficacy against Rickettsiae: no
Clostridium perfringens; expected efficacy, Gram: anaer
  efficacy against Clostridium perfringens: no
[3]
  efficacy against Corynebacterium urealyticum: no
Haemophilus ducreyi
  efficacy against Haemophilus ducreyi: no
Bordetella pertussis
  efficacy against Bordetella pertussis: no
Francisella tularensis; expected efficacy, Gram: neg
  efficacy against Francisella tularensis: no
Proteus mirabilis
  efficacy against Proteus mirabilis: no
Bartonella bacilliformis
  efficacy against Bartonella bacilliformis: no
Providencia stuartii
  efficacy against Providencia stuartii: no
[4]
  efficacy against Staphylococcus aureus (MSSA): yes
Acinetobacter lwoffii
  efficacy against Acinetobacter lwoffii: no
Legionella pneumophila; expected efficacy, Gram: neg
  efficacy against Legionella pneumophila: no
Pseudomonas aeruginosa
  efficacy against Pseudomonas aeruginosa: no
Streptococcus pyogenes
  efficacy against Streptococcus pyogenes: yes
Haemophilus influenzae
  efficacy against Haemophilus influenzae: no
Proteus vulgaris
  efficacy against Proteus vulgaris: no
Acinetobacter baumannii
  efficacy against Acinetobacter baumannii: no
Moraxella catarrhalis
  efficacy against Moraxella catarrhalis: no
[5]
  efficacy against Acinetobacter calcoaceticus: no
Neisseria meningitidis
  efficacy against Neisseria meningitidis: no
Campylobacter jejuni
  efficacy against Campylobacter jejuni: no
Yersinia pestis; expected efficacy, Gram: neg
  efficacy against Yersinia pestis: no
Providencia rettgeri
  efficacy against Providencia rettgeri: no
Enterobacter cloacae
  efficacy against Enterobacter cloacae: no
Brucella species; expected efficacy, Gram: neg
  efficacy against Brucella species: no
Morganella morganii
  efficacy against Morganella morganii: no
Enterobacter sakazakii
  efficacy against Enterobacter sakazakii: no
Enterobacter aerogenes
  efficacy against Enterobacter aerogenes: no
Serratia marcescens
  efficacy against Serratia marcescens: no
[6]
  efficacy against Klebsiella (Calymmatobacterium) granulomatis: no
Neisseria gonorrhoeae
  efficacy against Neisseria gonorrhoeae: no
Salmonella typhi
  efficacy against Salmonella typhi: no
Shigella flexneri
  efficacy against Shigella flexneri: no
Citrobacter diversus
  efficacy against Citrobacter diversus: no
Vibrio cholerae
  efficacy against Vibrio cholerae: no
Escherichia coli
  efficacy against Escherichia coli: no
Corynebacterium jeikeium
  efficacy against Corynebacterium jeikeium: no
Klebsiella pneumoniae
  efficacy against Klebsiella pneumoniae: no

## OC(Cn1cncn1)(Cn1cncn1)c1ccc(F)cc1F [Fluconazole]
Candida species
  efficacy against Candida species: yes
Cryptococcus neoformans
  efficacy against Cryptococcus neoformans: yes
Aspergillus fumigatus
  efficacy against Aspergillus fumigatus: yes
Blastomyces dermatitidis
  efficacy against Blastomyces dermatitidis: yes
Histoplasma capsulatum
  efficacy against Histoplasma capsulatum: yes
Aspergillus flavus
  efficacy against Aspergillus flavus: yes
Coccidioides immitis
  efficacy against Coccidioides immitis: yes

## CN[C@H](CC(C)C)C(=O)N[C@H]1C(=O)N[C@@H](CC(N)=O)C(=O)N[C@H]2C(=O)N[C@H]3C(=O)N[C@H](C(=O)N[C@H](C(=O)O)c4cc(O)cc(O)c4-c4cc3ccc4O)[C@H](O)c3ccc(c(Cl)c3)Oc3cc2cc(c3O[C@@H]2O[C@H](CO)[C@@H](O)[C@H](O)[C@H]2O[C@H]2C[C@](C)(N)[C@H](O)[C@H](C)O2)Oc2ccc(cc2Cl)[C@H]1O [Vancomycin]
Chlamydia pneumoniae
  efficacy against Chlamydia pneumoniae: no
Klebsiella oxytoca
  efficacy against Klebsiella oxytoca: no
Peptostreptococcus
  efficacy against Peptostreptococcus: yes
Pseudomonas fluorescens
  efficacy against Pseudomonas fluorescens: no
Bacteroides fragilis
  efficacy against Bacteroides fragilis: no
Shigella dysenteriae
  efficacy against Shigella dysenteriae: no
Shigella boydii
  efficacy against Shigella boydii: no
Shigella sonnei
  efficacy against Shigella sonnei: no
Citrobacter freundii
  efficacy against Citrobacter freundii: no
[2]
  efficacy against Methicillin resistant staph aureus (MRSA): yes
Rickettsiae
  efficacy against Rickettsiae: no
Streptococcus agalactiae
  efficacy against Streptococcus agalactiae: yes
Clostridium perfringens
  efficacy against Clostridium perfringens: no
[3]
  efficacy against Corynebacterium urealyticum: yes
Haemophilus ducreyi
  efficacy against Haemophilus ducreyi: no
Bordetella pertussis
  efficacy against Bordetella pertussis: no
Francisella tularensis
  efficacy against Francisella tularensis: no
Proteus mirabilis
  efficacy against Proteus mirabilis: no
Enterococcus faecalis
  efficacy against Enterococcus faecalis: yes
Bartonella bacilliformis
  efficacy against Bartonella bacilliformis: no
Providencia stuartii
  efficacy against Providencia stuartii: no
[4]
  efficacy against Staphylococcus aureus (MSSA): yes
Acinetobacter lwoffii
  efficacy against Acinetobacter lwoffii: no
Legionella pneumophila
  efficacy against Legionella pneumophila: no
Pseudomonas aeruginosa
  efficacy against Pseudomonas aeruginosa: no
Streptococcus pyogenes
  efficacy against Streptococcus pyogenes: yes
Haemophilus influenzae
  efficacy against Haemophilus influenzae: no
Proteus vulgaris
  efficacy against Proteus vulgaris: no
Clostridium difficile
  efficacy against Clostridium difficile: yes
Acinetobacter baumannii
  efficacy against Acinetobacter baumannii: no
Moraxella catarrhalis
  efficacy against Moraxella catarrhalis: no
[5]
  efficacy against Acinetobacter calcoaceticus: no
Streptococcus pneumoniae
  efficacy against Streptococcus pneumoniae: yes
Neisseria meningitidis
  efficacy against Neisseria meningitidis: no
Campylobacter jejuni
  efficacy against Campylobacter jejuni: no
Yersinia pestis
  efficacy against Yersinia pestis: no
Providencia rettgeri
  efficacy against Providencia rettgeri: no
[7]
  efficacy against Staphylococcus epidermidis: yes
Enterobacter cloacae
  efficacy against Enterobacter cloacae: no
[8]
  efficacy against Haemophilus parainfluenzae: no
Brucella species
  efficacy against Brucella species: no
Morganella morganii
  efficacy against Morganella morganii: no
Enterococcus faecium
  efficacy against Enterococcus faecium: yes, not VRE
[9]
  efficacy against Viridans group streptococci: yes
Mycoplasma pneumoniae
  efficacy against Mycoplasma pneumoniae: no
Enterobacter sakazakii
  efficacy against Enterobacter sakazakii: no
Enterobacter aerogenes
  efficacy against Enterobacter aerogenes: no
Serratia marcescens
  efficacy against Serratia marcescens: no
[6]
  efficacy against Klebsiella (Calymmatobacterium) granulomatis: no
Neisseria gonorrhoeae
  efficacy against Neisseria gonorrhoeae: no
Salmonella typhi
  efficacy against Salmonella typhi: no
Shigella flexneri
  efficacy against Shigella flexneri: no
Citrobacter diversus
  efficacy against Citrobacter diversus: no
Chlamydia trachomatis
  efficacy against Chlamydia trachomatis: no
Vibrio cholerae
  efficacy against Vibrio cholerae: no
Escherichia coli
  efficacy against Escherichia coli: no
Corynebacterium jeikeium
  efficacy against Corynebacterium jeikeium: yes
Chlamydia psittaci
  efficacy against Chlamydia psittaci: no
Klebsiella pneumoniae
  efficacy against Klebsiella pneumoniae: no
Diphtheroids
  efficacy against Diphtheroids: yes
